From the supplement of paper PMC11061612

Assays:
Assay in all cases: Bliss excess, mean over the matrix (fraction); higher = more synergy
[1] = tested on: HSC-3 (Oral Cavity Carcinoma)
In short: (§1)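 Bliss excess equals the observed combination effect minus the expected value EA + EB − EA·EB, where EA and EB are the effects of each agent alone. Combination Emax is the second-highest inhibition within the matrix. Inhibition was scaled from CellTiter-Glo 2.0 luminescence, with 0 set by vehicle wells and 1 by blank wells, after 72 hours of two-drug dosing of cells plated in 1536-well plates.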

[2] = tested on: PC-14 (Lung Adenocarcinoma)
In short: as §1

RT4 (Bladder Carcinoma) = tested on: RT4 (Bladder Carcinoma)
In short: as §1

[3] = tested on: SK-MM-2 (Plasma Cell Myeloma)
In short: as §1

Structure (SMILES)	Bliss excess [1]	Bliss excess [2]	Bliss excess (RT4 (Bladder Carcinoma))	Bliss excess [3]
CN(CCO)CC[C@H](CSc1ccccc1)Nc1ccc(S(=O)(=O)NC(=O)c2ccc(N3CCC([C@@H](O)c4ccccc4-c4ccc(Cl)cc4)CC3)cc2)cc1S(=O)(=O)C(F)(F)F [AZD4320] + C=CCn1c(=O)c2cnc(Nc3ccc(N4CCN(C)CC4)cc3)nc2n1-c1cccc(C(C)(C)O)n1 [AZD1775] (first compound max 1 µM, partner max 1 µM)	-0.0083	0.0069	0.0755	0.0011
CC1(C)CCC(CN2CCN(c3ccc(C(=O)NS(=O)(=O)c4ccc(NCC5CCOCC5)c([N+](=O)[O-])c4)c(Oc4cnc5[nH]ccc5c4)c3)CC2)=C(c2ccc(Cl)cc2)C1 [Venetoclax] + C1CN(CCC1(C(=O)N[C@@H](CCO)C2=CC=C(C=C2)Cl)N)C3=NC=NC4=C3C=CN4 [Capivasertib] (first compound max 1 µM, 7x7, partner max 3 µM)	-0.0501	-0.038	-0.0469	-0.0449
CCN(CCO)CCCOc1ccc2c(Nc3cc(CC(=O)Nc4cccc(F)c4)[nH]n3)ncnc2c1 [AZD2811] + O=C(c1cc(Cc2n[nH]c(=O)c3ccccc23)ccc1F)N1CCN(C(=O)C2CC2)CC1 [Olaparib] (first compound max 1 µM, 7x7, partner max 10 µM)	0.0273	0.0228	0.0243	-0.0256
CN(C)CCCOc1ccc(-c2ccc3ncc4c(c3c2)n(C2CCOCC2)c(=O)n4C)cn1 [AZD0156] + C=CCn1c(=O)c2cnc(Nc3ccc(N4CCN(C)CC4)cc3)nc2n1-c1cccc(C(C)(C)O)n1 [AZD1775] (first compound max 1 µM, partner max 1 µM)	-0.0534	-0.0209	-0.0136	0.0058
CN(CCO)CC[C@H](CSc1ccccc1)Nc1ccc(S(=O)(=O)NC(=O)c2ccc(N3CCC([C@@H](O)c4ccccc4-c4ccc(Cl)cc4)CC3)cc2)cc1S(=O)(=O)C(F)(F)F [AZD4320] + C1CN(CCC1(C(=O)N[C@@H](CCO)C2=CC=C(C=C2)Cl)N)C3=NC=NC4=C3C=CN4 [Capivasertib] (first compound max 1 µM, 7x7, partner max 3 µM)	-0.037	-0.03	-0.0716	-0.0077
CN(CCO)CC[C@H](CSc1ccccc1)Nc1ccc(S(=O)(=O)NC(=O)c2ccc(N3CCC([C@@H](O)c4ccccc4-c4ccc(Cl)cc4)CC3)cc2)cc1S(=O)(=O)C(F)(F)F [AZD4320] + C[C@@H](Nc1cc(F)cc(F)c1)c1cc(C(=O)N(C)C)cc2c(=O)cc(N3CCOCC3)oc12 [AZD8186] (first compound max 1 µM, 7x7, partner max 3 µM)	0.0482	0.0228	0.032	0.0197
COc1cccc2c1C(=O)c1c(O)c3c(c(O)c1C2=O)C[C@@](O)(C(=O)CO)C[C@@H]3O[C@H]1C[C@H](N)[C@H](O)[C@H](C)O1 [Doxorubicin] + Cc1cc2ncnn2cc1Nc1ncc2c(n1)n(C1CCOCC1)c(=O)n2C [AZD7648] (first compound max 1 µM, 7x7, partner max 10 µM)	0.0907	0.0728	0.039	-0.0137
CCN(CCO)CCCOc1ccc2c(Nc3cc(CC(=O)Nc4cccc(F)c4)[nH]n3)ncnc2c1 [AZD2811] + C=CCn1c(=O)c2cnc(Nc3ccc(N4CCN(C)CC4)cc3)nc2n1-c1cccc(C(C)(C)O)n1 [AZD1775] (first compound max 1 µM, partner max 1 µM)	0.0504	-0.0026	0.0196	-0.0005
CC1(C)CCC(CN2CCN(c3ccc(C(=O)NS(=O)(=O)c4ccc(NCC5CCOCC5)c([N+](=O)[O-])c4)c(Oc4cnc5[nH]ccc5c4)c3)CC2)=C(c2ccc(Cl)cc2)C1 [Venetoclax] + CCN(CCO)CCCOc1ccc2c(Nc3cc(CC(=O)Nc4cccc(F)c4)[nH]n3)ncnc2c1 [AZD2811] (first compound max 1 µM, 7x7, partner max 1 µM)	-0.0475	0.0131	0.0704	-0.0099
COc1cccc(OCCCN)c1-c1cc(Nc2cnc(C#N)cn2)n[nH]1 [Prexasertib] + C[C@@H]1COCCN1C2=NC(=NC(=C2)C3(CC3)[S@](=N)(=O)C)C4=C5C=CNC5=NC=C4 [AZD6738] (first compound max 1 µM, 7x7, partner max 10 µM)	0.0351	-0.047	0.0645	-0.0348
Cc1c2c(nn1C)CSCc1cc(n(C)n1)CSc1cc(c3ccccc3c1)OCCCc1c(C(=O)O)n(C)c3c-2c(Cl)ccc13 [AZD5991] + Cn1cnc2c(F)c(Nc3ccc(Br)cc3Cl)c(C(=O)NOCCO)cc21 [Selumetinib] (first compound max 1 µM, 7x7, partner max 3 µM)	0.0137	0.0286	0.0266	-0.0194
COc1cccc(OCCCN)c1-c1cc(Nc2cnc(C#N)cn2)n[nH]1 [Prexasertib] + Cc1cc2ncnn2cc1Nc1ncc2c(n1)n(C1CCOCC1)c(=O)n2C [AZD7648] (first compound max 1 µM, 7x7, partner max 10 µM)	-0.0096	-0.037	-0.0045	-0.0512
CC1(C)CCC(CN2CCN(c3ccc(C(=O)NS(=O)(=O)c4ccc(NCC5CCOCC5)c([N+](=O)[O-])c4)c(Oc4cnc5[nH]ccc5c4)c3)CC2)=C(c2ccc(Cl)cc2)C1 [Venetoclax] + C[C@@H]1COCCN1C2=NC(=NC(=C2)C3(CC3)[S@](=N)(=O)C)C4=C5C=CNC5=NC=C4 [AZD6738] (first compound max 1 µM, 7x7, partner max 10 µM)	-0.0022	-0.021	-0.0281	0.0217
Cc1cc2ncnn2cc1Nc1ncc2c(n1)n(C1CCOCC1)c(=O)n2C [AZD7648] + O=C(c1cc(Cc2n[nH]c(=O)c3ccccc23)ccc1F)N1CCN(C(=O)C2CC2)CC1 [Olaparib] (first compound max 10 µM, 7x7, partner max 10 µM)	-0.0102	-0.0245	0.0016	-0.0204
C=CCn1c(=O)c2cnc(Nc3ccc(N4CCN(C)CC4)cc3)nc2n1-c1cccc(C(C)(C)O)n1 [AZD1775] + O=C(c1cc(Cc2n[nH]c(=O)c3ccccc23)ccc1F)N1CCN(C(=O)C2CC2)CC1 [Olaparib] (first compound max 1 µM, partner max 10 µM)	0.0013	-0.0248	0.0107	-0.0471
CCc1c2c(nc3ccc(O)cc13)-c1cc3c(c(=O)n1C2)COC(=O)[C@]3(O)CC [SN-38] + O=C(c1cc(Cc2n[nH]c(=O)c3ccccc23)ccc1F)N1CCN(C(=O)C2CC2)CC1 [Olaparib] (first compound max 0.3 µM, 7x7, partner max 10 µM)	0.0263	0.0707	0.0702	-0.0056
Cc1cc2ncnn2cc1Nc1ncc2c(n1)n(C1CCOCC1)c(=O)n2C [AZD7648] + C=CCn1c(=O)c2cnc(Nc3ccc(N4CCN(C)CC4)cc3)nc2n1-c1cccc(C(C)(C)O)n1 [AZD1775] (first compound max 10 µM, partner max 1 µM)	-0.0488	-0.025	0.0218	-0.0214
Cc1cc2ncnn2cc1Nc1ncc2c(n1)n(C1CCOCC1)c(=O)n2C [AZD7648] + C[C@@H]1COCCN1C2=NC(=NC(=C2)C3(CC3)[S@](=N)(=O)C)C4=C5C=CNC5=NC=C4 [AZD6738] (first compound max 10 µM, 7x7, partner max 10 µM)	-0.0299	0.0031	0.0354	0.0022
CN(CCO)CC[C@H](CSc1ccccc1)Nc1ccc(S(=O)(=O)NC(=O)c2ccc(N3CCC([C@@H](O)c4ccccc4-c4ccc(Cl)cc4)CC3)cc2)cc1S(=O)(=O)C(F)(F)F [AZD4320] + Cc1cc2ncnn2cc1Nc1ncc2c(n1)n(C1CCOCC1)c(=O)n2C [AZD7648] (first compound max 1 µM, 7x7, partner max 10 µM)	-0.0051	-0.0188	-0.004	-0.0268
COc1cccc(OCCCN)c1-c1cc(Nc2cnc(C#N)cn2)n[nH]1 [Prexasertib] + C=CCn1c(=O)c2cnc(Nc3ccc(N4CCN(C)CC4)cc3)nc2n1-c1cccc(C(C)(C)O)n1 [AZD1775] (first compound max 1 µM, partner max 1 µM)	0.121	0.0069	0.128	0.0085
Cc1c2c(nn1C)CSCc1cc(n(C)n1)CSc1cc(c3ccccc3c1)OCCCc1c(C(=O)O)n(C)c3c-2c(Cl)ccc13 [AZD5991] + C1CN(CCC1(C(=O)N[C@@H](CCO)C2=CC=C(C=C2)Cl)N)C3=NC=NC4=C3C=CN4 [Capivasertib] (first compound max 1 µM, 7x7, partner max 3 µM)	-0.0539	0.0145	0.023	-0.0186
CN(C)CCCOc1ccc(-c2ccc3ncc4c(c3c2)n(C2CCOCC2)c(=O)n4C)cn1 [AZD0156] + CCN(CCO)CCCOc1ccc2c(Nc3cc(CC(=O)Nc4cccc(F)c4)[nH]n3)ncnc2c1 [AZD2811] (first compound max 1 µM, 7x7, partner max 1 µM)	-0.0087	-0.0042	-0.0063	-0.0131
CC(=O)Nc1cccc(-n2c(=O)n(C3CC3)c(=O)c3c(Nc4ccc(I)cc4F)n(C)c(=O)c(C)c32)c1 [Trametinib] + Cc1nc(-c2cn3c(n2)-c2ccc(-c4cnn(C(C)(C)C(N)=O)c4)cc2OCC3)n(C(C)C)n1 [Taselisib] (first compound max 1 µM, 7x7, partner max 10 µM)	0.15	0.163	0.0566	0.0386
CN(CCO)CC[C@H](CSc1ccccc1)Nc1ccc(S(=O)(=O)NC(=O)c2ccc(N3CCC([C@@H](O)c4ccccc4-c4ccc(Cl)cc4)CC3)cc2)cc1S(=O)(=O)C(F)(F)F [AZD4320] + CN(C)CCCOc1ccc(-c2ccc3ncc4c(c3c2)n(C2CCOCC2)c(=O)n4C)cn1 [AZD0156] (first compound max 1 µM, 7x7, partner max 1 µM)	-0.0532	-0.019	-0.0057	0.0468
COc1cccc(OCCCN)c1-c1cc(Nc2cnc(C#N)cn2)n[nH]1 [Prexasertib] + CCc1c2c(nc3ccc(O)cc13)-c1cc3c(c(=O)n1C2)COC(=O)[C@]3(O)CC [SN-38] (first compound max 1 µM, 7x7, partner max 0.3 µM)	-0.0455	-0.0169	-0.0055	-0.0714
CC1(C)CCC(CN2CCN(c3ccc(C(=O)NS(=O)(=O)c4ccc(NCC5CCOCC5)c([N+](=O)[O-])c4)c(Oc4cnc5[nH]ccc5c4)c3)CC2)=C(c2ccc(Cl)cc2)C1 [Venetoclax] + COc1cc(Nc2ncc3c(n2)-c2ccc(Cl)cc2C(c2c(F)cccc2OC)=NC3)ccc1C(=O)O [Alisertib] (first compound max 1 µM, 7x7, partner max 10 µM)	0.0079	0.0366	0.0354	0.0207
